Data on 11 compounds can be found in patent US20260274892A1, “MACROCYCLIC BROAD SPECTRUM ANTIBIOTICS” (RQx Pharmaceuticals, Inc., priority 2017, published 2026).

The subject of assay [1] is Escherichia coli ATCC 25922. Description: Minimum inhibitory concentration (MIC), CLSI broth micro-dilution, E. coli. Type of assay: cell-based. The following applies: Escherichia coli, ATCC25922, 22 h, Table 6, cation adjusted Mueller Hinton Broth + 0.002% Tween-80, 35° C. Summed up: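 Antibacterial potency is measured as MIC by the CLSI broth dilution method. Bacteria at OD600 0.0005 in Tween-80-supplemented cation-adjusted Mueller Hinton broth face ten twofold compound dilutions for 22 h at 35° C.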

Assay [2] deals with Methicillin Resistant Staphylococcus aureus strain USA 200. Description: Minimum inhibitory concentration (MIC), CLSI broth micro-dilution, S. aureus. Type of assay: cell-based. As to conditions: Staphylococcus aureus, MRSA / USA200; Table 6; MRSA USA 200; cation adjusted Mueller Hinton Broth + 0.002% Tween-80; 35° C., 22 hours. Here is the method: In vitro antimicrobial activity of each compound was determined by measuring minimal inhibitor concentrations (MICs) using the broth micro-dilution technique as approved by the Clinical and Laboratory Standards Institute (CLSI) (Methods for Dilution Antimicrobial Susceptibility Tests for Bacteria that Grow Aerobically; Approved Standard-Eighth Edition. CLSI document M07-A8. Wayne, PA: Clinical and Laboratroy Standards; 2009). Antibacterial activity was measure against two strains of bacteria: a Methicillin Resistant Staphylococcus aureus strain USA 200, (S. aureus) and Escherichia coli ATCC 25922 (E. coli), a clinically relevant Gram-negative strain. Cells were inoculated onto plates of Trypyticase Soy Agar or Luria Agar respectively and grown at 35° C. for 20 hours. Inocula suspensions were prepared by scraping cells into 1 mL of testing media (cation adjusted Mueller Hinton Broth supplemented with 0.002% v/v Tween-80) and diluting to a final OD600nm of 0.01.
Test compounds were prepared in DMSO at a concentration of 10 mg/mL. In protocol 1, the compound stocks were diluted into testing media at a concentration of 64 µg/ml and serial 2-fold dilutions were made in the same media, in 96-well U bottom microtiter dishes, for a total of 10 compound concentrations. In protocol 2, the compound stocks were diluted into testing media at a concentration of 4 µg/mL and serial 2-fold dilutions were made in the same media, in 96-well U bottom microtiter dishes, for a total of 10 compound concentrations. In protocol 3, compound stocks were diluted into testing media at a concentration of 0.5 μg/mL, with serial 2-fold dilutions conducted as described above. In protocol 4, compound stocks were diluted into testing media at a concentration of […], with serial 2-fold dilutions conducted as described above. Inocula suspensions were added to the 2-fold serial dilutions of test compounds to a final density of GD OD600nm of 0.0005 and incubated at 35° C. for 22 hours.
In general terms: In broth dilution the organism is exposed to a series of concentrations in liquid medium.

The structures appear in SMILES notation.

The MIC is the least concentration at which growth counts as inhibited. As to `Cc1cc(-c2ccc(C(C)(C)C)cc2)cc(C)c1C(=O)N[C@@H](CCN)C(=O)N(C)[C@@H]1C(=O)N[C@@H](C)C(=O)N[C@H](C(=O)NCC#N)Cc2ccc(OCCN)c(c2)-c2cc1ccc2OCCN` (racemic) [Compound 370, rac-(8S,11S,14S)-3,18-bis(2-aminoethoxy)-N-(cyanomethyl)-11-methyl-14-[methyl-[rac-(2S)-4-amino-2-[[4-(4-tert-butylphenyl)-2,6-dimethyl-benzoyl]amino]butanoyl]amino]-10,13-dioxo-9,12-diazatricyclo[13.3.1.12,6]icosa-1(18),2(20),3,5,15(19),16-hexaene-8-carboxamide], the MIC came to 0.19 µM in assay [1] and 0.031 µM in assay [2].

With `CCCC(F)(F)c1ccc(-c2nc(C)c(C(=O)N[C@@H](CCN)C(=O)N(C)[C@@H]3C(=O)N[C@@H](C)C(=O)N[C@H](C(=O)NCC#N)Cc4ccc(OCCN)c(c4)-c4cc3ccc4OCCN)c(C)n2)cc1` (racemic) [Compound 294, rac-(8S,11S,14S)-3,18-bis(2-aminoethoxy)-N-(cyanomethyl)-11-methyl-14-[methyl-[rac-(2S)-4-amino-2-[[2-[4-(1,1-difluorobutyl)phenyl]-4,6-dimethyl-pyrimidine-5-carbonyl]amino]butanoyl]amino]-10,13-dioxo-9,12-diazatricyclo[13.3.1.12,6]icosa-1(18),2(20),3,5,15(19),16-hexaene-8-carboxamide], the MIC in assay [1] came to 0.19 µM; in assay [2], 0.031 µM.

For the compound `Cc1nc(-c2ccc(C(C)(C)C)cc2)ccc1C(=O)N[C@@H](CCN)C(=O)N(C)[C@@H]1C(=O)N[C@@H](C)C(=O)N[C@H](C(=O)NCC#N)Cc2ccc(O)c(c2)-c2cc1ccc2OCCN` (racemic) [Compound 526, rac-(8S,11S,14S)-18-(2-aminoethoxy)-N-(cyanomethyl)-3-hydroxy-11-methyl-14-[methyl-[rac-(2S)-4-amino-2-[[6-(4-tert-butylphenyl)-2-methyl-pyridine-3-carbonyl]amino]butanoyl]amino]-10,13-dioxo-9,12-diazatricyclo[13.3.1.12,6]icosa-1(18),2(20),3,5,15(19),16-hexaene-8-carboxamide], the results for the MIC in assay [1] and in assay [2] were 0.33 µM and 0.047 µM, respectively.

Consider `Cc1nc(-c2ccc3c(c2)CCC3(C)C)nc(C)c1C(=O)N[C@@H](CCN)C(=O)N(C)[C@@H]1C(=O)N[C@@H](C)C(=O)N[C@H](C(=O)NCC#N)Cc2ccc(OCCN)c(c2)-c2cc1ccc2OCCN` (racemic) [Compound 269, rac-(8S,11S,14S)-3,18-bis(2-aminoethoxy)-N-(cyanomethyl)-11-methyl-14-[methyl-[rac-(2S)-4-amino-2-[[2-(1,1-dimethylindan-5-yl)-4,6-dimethyl-pyrimidine-5-carbonyl]amino]butanoyl]amino]-10,13-dioxo-9,12-diazatricyclo[13.3.1.12,6]icosa-1(18),2(20),3,5,15(19),16-hexaene-8-carboxamide], for which the MIC in assay [1] was found to be 0.094 µM; in assay [2], 0.016 µM.

For the compound `CCCCCCOc1ccc(-c2ncc(C(=O)N[C@@H](CCN)C(=O)N(C)[C@@H]3C(=O)N[C@@H](C)C(=O)N[C@H](C(=O)NCC#N)Cc4ccc(OCCN)c(c4)-c4cc3ccc4OCCN)c(C)n2)cc1` (racemic) [Compound 248, rac-(8S,11S,14S)-3,18-bis(2-aminoethoxy)-N-(cyanomethyl)-11-methyl-14-[methyl-[rac-(2S)-4-amino-2-[[2-(4-hexoxyphenyl)-4-methyl-pyrimidine-5-carbonyl]amino]butanoyl]amino]-10,13-dioxo-9,12-diazatricyclo[13.3.1.12,6]icosa-1(18),2(20),3,5,15(19),16-hexaene-8-carboxamide], the figures for the MIC in assay [1] and in assay [2] were 0.13 µM and 0.016 µM, respectively.

In the case of `CCCCCCCCc1ccc(C(=O)N[C@@H](CCC(=O)NCC)C(=O)N(C)[C@@H]2C(=O)N[C@@H](C)C(=O)N[C@H](C(=O)NCC#N)Cc3ccc(OCCN)c(c3)-c3cc2ccc3OCCN)c(C)c1` (racemic) [Compound 445, rac-(2S)-N′-ethyl-N-methyl-2-[(2-methyl-4-octyl-benzoyl)amino]-N-[rac-(7S,10S,13S)-3,18-bis(2-aminoethoxy)-13-(cyanomethylcarbamoyl)-10-methyl-8,11-dioxo-9,12-diazatricyclo[13.3.1.12,6]icosa-1(19),2,4,6(20),15,17-hexaen-7-yl]pentanediamide], the MIC in assay [1] came out at 4.1 µM; in assay [2] it was 0.13 µM.

In the case of `CCCCCCc1cnc2cc(C(=O)N[C@@H](CCN)C(=O)N(C)[C@@H]3C(=O)N[C@@H](C)C(=O)N[C@H](C(=O)NCC#N)Cc4ccc(OCCN)c(c4)-c4cc3ccc4OCCN)c(C)nc2c1` (racemic) [Compound 398, rac-(8S,11S,14S)-3,18-bis(2-aminoethoxy)-N-(cyanomethyl)-11-methyl-14-[methyl-[rac-(2S)-4-amino-2-[(7-hexyl-2-methyl-1,5-naphthyridine-3-carbonyl)amino]butanoyl]amino]-10,13-dioxo-9,12-diazatricyclo[13.3.1.12,6]icosa-1(18),2(20),3,5,15(19),16-hexaene-8-carboxamide], the MIC was 0.27 µM in assay [1] and 0.025 µM in assay [2].

For `Cc1nc(-c2ccc(C(C)(C)C)cc2)nc(N(C)C)c1C(=O)N[C@@H](CCN)C(=O)N(C)[C@@H]1C(=O)N[C@@H](C)C(=O)N[C@H](C(=O)NCC#N)Cc2ccc(OCCN)c(c2)-c2cc1ccc2OCCN` (racemic) [Compound 424, rac-(8S,11S,14S)-3,18-bis(2-aminoethoxy)-N-(cyanomethyl)-11-methyl-14-[methyl-[rac-(2S)-4-amino-2-[[2-(4-tert-butylphenyl)-4-(dimethylamino)-6-methyl-pyrimidine-5-carbonyl]amino]butanoyl]amino]-10,13-dioxo-9,12-diazatricyclo[13.3.1.12,6]icosa-1(18),2(20),3,5,15(19),16-hexaene-8-carboxamide], the minimal inhibitory concentration (MIC) in assay [1] worked out at 0.19 µM; in assay [2], 0.023 µM.

With `Cc1nc(-c2ccc(C3C4CC5CC(C4)CC3C5)cc2)ncc1C(=O)N[C@@H](CCN)C(=O)N(C)[C@@H]1C(=O)N[C@@H](C)C(=O)N[C@H](C(=O)NCC#N)Cc2ccc(OCCN)c(c2)-c2cc1ccc2OCCN` (mixture of isomers) [Compound 239, rac-(8S,11S,14S)-3,18-bis(2-aminoethoxy)-N-(cyanomethyl)-11-methyl-14-[methyl-[rac-(2S)-2-[[2-[4-(2-adamantyl)phenyl]-4-methyl-pyrimidine-5-carbonyl]amino]-4-amino-butanoyl]amino]-10,13-dioxo-9,12-diazatricyclo[13.3.1.12,6]icosa-1(18),2(20),3,5,15(19),16-hexaene-8-carboxamide], the MIC in assay [1] turned out to be 0.12 µM; in assay [2], 0.015 µM.

With `Cc1nc(C(F)(F)c2ccc(C(C)(C)C)cc2)nc(C)c1C(=O)N[C@@H](CCN)C(=O)N(C)[C@@H]1C(=O)N[C@@H](C)C(=O)N[C@H](C(=O)NCC#N)Cc2ccc(OCCN)c(c2)-c2cc1ccc2OCCN` (racemic) [Compound 289, rac-(8S,11S,14S)-3,18-bis(2-aminoethoxy)-N-(cyanomethyl)-11-methyl-14-[methyl-[rac-(2S)-4-amino-2-[[2-[(4-tert-butylphenyl)-difluoro-methyl]-4,6-dimethyl-pyrimidine-5-carbonyl]amino]butanoyl]amino]-10,13-dioxo-9,12-diazatricyclo[13.3.1.12,6]icosa-1(18),2(20),3,5,15(19),16-hexaene-8-carboxamide], the MIC in assay [1] worked out at 0.75 µM; in assay [2], 0.016 µM.

Turning to `Cc1cc(-c2ccc(CC(C)C)cc2)ncc1C(=O)N[C@@H](CCN)C(=O)N(C)[C@@H]1C(=O)N[C@@H](C)C(=O)N[C@H](C(=O)NCC#N)Cc2ccc(O)c(c2)-c2cc1ccc2OCCN` (racemic) [Compound 525, rac-(8S,11S,14S)-18-(2-aminoethoxy)-N-(cyanomethyl)-3-hydroxy-11-methyl-14-[methyl-[rac-(2S)-4-amino-2-[[6-(4-isobutylphenyl)-4-methyl-pyridine-3-carbonyl]amino]butanoyl]amino]-10,13-dioxo-9,12-diazatricyclo[13.3.1.12,6]icosa-1(18),2(20),3,5,15(19),16-hexaene-8-carboxamide], the results for the MIC in assay [1] and in assay [2] were 0.56 µM and 0.053 µM, respectively.
